In patent US20070009593A1, “Methods of treating cancer” (Indianan University Advanced Research, priority 2002, published 2007):
Read-outs that look alike come from different tables or passages of the source.

What was measured:
[1] = target: T1, chymotryptic active site of the proteasome (ZGGL-AMC cleavage) (Homo sapiens, UniProt P28074); assay: fluorometric assay of ZGGL-AMC cleavage by Caco 2 cells; format: cell-based; conditions: for ZGGL-AMC cleavage: Caco 2 cells (DMSO control 0.287)
T1 construct: Fluorometric assay of ZGGL-AMC cleavage by Caco 2 cells; endogenous in cells; host or cells: Caco 2

[2] = in vivo; conditions: mouse, ip
[3] = test system: MDA-436IκBSR (super-repressor of NF-κB over-expressed); assay: MTT assay, breast cancer line; format: cell-based; conditions: Homo sapiens, read-out: Ritonavir IC50
[4] = patients, Gatti et al., cited from earlier work
[5] = test system: MDA-MB-231 human breast cancer tumors; assay: MDA-MB-231 xenograft model; format: in vivo, nude mice; conditions: 40 mg/kg
Experimental: (Tumor size was measured by the method volume in cubic mm=length×[width]squared/2.) The tumors in this preliminary experiment took 7 weeks to grow and represent established tumors. […] FIG. 6B confirms the finding of 6A, showing that all three of the control tumors progressed. […] FIG. 6C depicts weight of the tumor when measured at days 1, 6, 9, and 13. FIG. 6D depicts weight of the animal when measured at days 1, 3, 6, 10, and 13.

[6] = test system: A549; assay: MTT assay, NSCLC cell line; format: cell-based; conditions: Homo sapiens
[7] = test system: MDA-436; assay: MTT assay, breast cancer line; format: cell-based; conditions: Homo sapiens, read-out: Ritonavir IC50; MDA-436 parental line
Experimental: (§1) The drugs were tested together at the ratio of their IC50 as single agents, over a 4-log range of concentrations. […] Viable cell number was measured by MTT assay.

[8] = test system: T47D; assay: MTT assay, breast cancer line; format: cell-based; conditions: Homo sapiens, read-out: Ritonavir IC50
Experimental: as §1

[9] = test system: SKBR-3; assay: MTT assay, breast cancer line; format: cell-based; conditions: Homo sapiens, SK-BR-3, read-out: Ritonavir IC50
Experimental: as §1

[10] = test system: MCF7; assay: MTT assay, breast cancer line; format: cell-based; conditions: Homo sapiens, MCF7, read-out: Ritonavir IC50
Experimental: as §1

[11] = test system: MDA-231; assay: MTT assay, breast cancer line; format: cell-based; conditions: Homo sapiens
Experimental: as §1

[12] = test system: Caco 2 0.5-11 (calpastatin over-expressing); assay: MTT assay, 96 well plate, 48 h; format: cell-based; conditions: Homo sapiens, Caco-2, read-out: Ritonavir IC50, 0.5-11 line (calpain activity reduction of 80%)
[13] = test system: 436 with expression of IκB α super-repressor of NF-κB; assay: clonogenic assay (LD50), ritonavir sensitivity; format: cell-based, human; conditions: 436 expressing IκB α super-repressor of NF-κB
Description: This finding is consistent with the implication of signaling pathways in the resistance of breast cancer cell lines to chemotherapy (Patel et al., Oncogene 19:4159-4169).
We note that the IC50 is derived from MTT assays, while the LD50 is derived from clonogenic assays.

[14] = ritonavir serum levels in mice

## CC(C)c1nc(CN(C)C(=O)N[C@H](C(=O)N[C@@H](Cc2ccccc2)C[C@H](O)[C@H](Cc2ccccc2)NC(=O)OCc2cncs2)C(C)C)cs1 [Ritonavir, ritonavir]
[1]; 6 μM
  ZGGL-AMC cleavage: 0.432 pmol·s^1− 10^6 cells
[1]; 12 μM
  ZGGL-AMC cleavage: 0.412 pmol·s^1− 10^6 cells
[1]; 24 μM
  ZGGL-AMC cleavage: 0.337 pmol·s^1− 10^6 cells
[1]; 60 μM
  ZGGL-AMC cleavage: 0.409 pmol·s^1− 10^6 cells
[1]; Caco 2 cells
  effect on ZGGL-AMC cleavage: does not block cleavage
[2]
  half-life: < 3 h
[3]
  IC50: 26 µM
[4]; AIDS 13:2083-2089
  peak plasma ritonavir concentrations: 18.6 to 46 µM
  trough concentrations: 10.4 to 17.5 µM
[4]; read-out: upper boundary of ritonavir Cmax plasma concentrations
  Cmax: ~45 µM
[5]; nude mice, FIG. 6C
  growth rate of tumors: decrease the growth rate of tumors
[5]; nude mice, FIG. 6D
  weight of the animal: without causing wasting of the mice
[5]; three established tumors, FIG. 6A
  tumor response: two tumors of three exhibited stable disease
[6]; A549, MTT assay, single agent
  IC80: 45 µM
[6]; MTT assay
  IC50: 35 µM
[7]
  IC50: 40 µM
[8]
  IC50: 12 µM
[9]
  IC50: 60 µM
[10]
  IC50: 25 µM
[11]; MDA-MB-231, read-out: Ritonavir IC50, MDA-231
  IC50: 50 µM
[11]; MDA-MB-231, MDA-231, 48 hours, MTT, single agent, read-out: IC50
  IC50: 60 µM
[12]
  IC50: 15 µM
[13]
  LD50: 40 µM
[14]; Tween 80, ip injection
  trough drug levels: less than 0.1 μM
[14]; oral gavage, Norvir liquid, 40 mg/kg body weight
  peak ritonavir concentrations: less than 1 μM
